Data on 14 compounds can be found in patent publication US20110009435A1, “HETERO BICYCLIC CARBOXAMIDE DERIVATIVES AND THEIR PHARMACEUTICAL USE AND COMPOSITIONS” (Pfizer, Inc., priority 2007, published 2011).

For one assay, the target named is T1, Human recombinant MMP-13 (Homo sapiens, UniProt P45452).
T1 construct: made in house; host or cells: baculovirus expression (insect cells)
Put plainly: In vitro MMP inhibition assay, MMP-13 (fluorogenic peptide substrate cleavage, Ki). The assay is classed as biochemical. The settings on record: human MMP-13, full length (FL); read-out: hMMP Ki 13/FL. The method, then: (§1) Matrix Metalloproteinase inhibitor compounds were analyzed in in vitro MMP Inhibition assays to determine their ability to inhibit the MMP cleavage of peptide substrates. Inhibition constants (Ki) were calculated from the assayed compound-MMP interactions.
(§2) Human recombinant MMP-1, MMP-2, MMP-3, MMP-7, MMP-9, MMP-12, MMP-13, MMP-14 and MMP-15 were used in these assays. The enzymes are prepared following known laboratory procedures. Protocols for the preparation and use of these enzymes are available in the scientific literature. See, e.g., Enzyme Nomenclature (Academic Press, San Diego, Calif., 1992) and the citations therein. See also Frije et al., J. Biol. Chem., 26(24), 16766-73 (1994).
The MMP-13 may be obtained as a proenzyme from a full-length cDNA clone using baculovirus expression, as described by V. A. Luckow, “Insect Cell Expression Technology,” Protein Engineering: Principles and Practice, pp. 183-218 (edited by J. L. Cleland et al., Wiley-Liss, Inc., 1996). The expressed proenzyme was first purified over a heparin agarose column, and then over a chelating zinc chloride column. Further details on baculovirus expression systems may be found in, for example, Luckow et al., J. Virol., 67, 4566-79 (1993). See also O'Reilly et al, Baculovirus Expression Vectors: A Laboratory Manual (W. H. Freeman and Co., New York, N.Y., 1992). See also King et al., The Baculovirus Expression System: A Laboratory Guide (Chapman & Hall, London, England, 1992).
All full length MMPs were activated using 4-aminophenylmercuric acetate (“APMA”, Sigma Chemical, St. Louis, Mo.) or trypsin. MMP-9 also was activated using human recombinant MMP-3 following standard cloning and purification techniques.
The fluorogenic, methoxycoumarin-containing polypeptide substrate MCA-ArgProLeuGlyLeuDpaAlaArgGluArgNH2 was used as the MMP substrate in the MMP inhibition assays for human recombinant MMP-1, MMP-2, MMP-7, MMP-9, MMP-12, MMP-13, MMP-14 and MMP-15. Here, “MCA” is 7-methoxycoumarin-4-yl acetyl and “Dpa” is 3-(2,4-dinitrophenyl)-L-2,3-di-aminopropionyl group. In the absence of MMP inhibitory activity, the substrate is cleaved at the Gly-Leu peptide bond. The cleavage separates the highly fluorogenic peptide from the 2,4-dinitrophenyl quencher, resulting in an increase of fluorescent intensity.
For the human MMP-1, MMP-2, MMP-7, MMP-9, MMP-12, MMP-13, MMP-14 and MMP-15 assays, dilutions of the inhibitors (or salts thereof) were prepared in 100% dimethyl sulfoxide (DMSO). The stock solutions were diluted in Buffer A (100 mM Tris-HCl, 100 mM NaCl, 10 mM CaCl2, 0.005% polyoxyethylene 23 lauryl ether, pH 7.5) to obtain solutions with different compound concentrations, i.e., assay solutions with different concentrations of the assayed MMP inhibitory compound in 1% DMSO. The experiment controls contained the same amount of Buffer A/DMSO as the assayed sample, but contained no inhibitor.
(§3) To determine Ki, the inhibitor samples are incubated at room temperature for 1 hr in the presence of enzyme and then 4 μM of appropriate MMP substrate was added, and samples were analyzed on a Tecan SpectraFlour Plus plate reader. The excitation wavelength is 330 nm, and the emission (fluorescence) wavelength is 420 nm. In the absence of MMP inhibitory activity, the substrate is cleaved at the Gly-Leu bond resulting in an increase of relative fluorescence. Inhibition is observed as a reduced rate of increase in relative fluorescence.
The inhibitors are analyzed using a single low enzyme concentration with a single substrate concentration fixed at or below the Km. This protocol is a modification of method by Knight et al., FEBS Lett., 296(3), 263-266 (1992). Apparent inhibitory constants are determined by non-linear regression of reaction velocity as a function of inhibitor and enzyme concentration using Morrison's equation, as described by Kuzmic, Anal. Biochem. 286, 45-50 (2000). […]

Assay [1] addresses T2, catalytic domain of human recombinant MMP-3 (Homo sapiens, UniProt P08254).
T2 construct: made in house
The assay is described as follows: In vitro MMP inhibition assay, MMP-3 catalytic domain (fluorogenic peptide substrate cleavage, Ki). The conditions noted are these: human MMP-3, catalytic domain (CD); read-out: hMMP Ki 03/CD. The assay is classed as biochemical. The method, then: as §1, §2
The catalytic domain MMP-3 cDNA may be used to express the catalytic domain enzyme in E. coli inclusion bodies. Then the enzyme is solubilized in urea, purified on a preparative […] reverse phase HPLC column, and refolded in the presence of zinc acetate and purified for use.
The fluorogenic, methoxycoumarin-containing polypeptide substrate Mca-Arg-Pro-Lys-Pro-Val-Glu-Nva-Trp-Arg-Lys(Dnp)-NH2 (Bachem catalog number M-2110) was used as the MMP substrate in the MMP inhibition assays for catalytic domain of human recombinant MMP-3 (which refers to the catalytic domain of stromelysin). Here, “MCA” is 7-methoxycoumarin-4-yl acetyl and “Dpa” is 3-(2,4-dinitrophenyl)-L-2,3-di-aminopropionyl group. In the absence of MMP inhibitory activity, the substrate is cleaved at the Gly-Leu peptide bond. The cleavage separates the highly fluorogenic peptide from the 2,4-dinitrophenyl quencher, resulting in an increase of fluorescent intensity.
For the human MMP-3 assay, dilutions of the inhibitors (or salts thereof) were prepared in 100% DMSO. The stock solutions were diluted in Buffer B (50 mM N-morpholinoethane sulfonate (“MES”), 100 mM NaCl, 10 mM CaCl2, 0.005% polyoxyethylene 23 lauryl ether, pH 6.0)) to obtain solutions with different compound concentrations, i.e., assay solutions with different concentrations of the assayed MMP inhibitory compound in 1% DMSO. The experiment controls contained the same amount of Buffer B/DMSO as the assayed sample, but contained no inhibitor.
as §3
The inhibitors are analyzed using a single low enzyme concentration with a single substrate concentration fixed at or below the Km. This protocol is a modification of method by Knight et al., FEBS Lett., 296(3), 263-266 (1992). Apparent inhibitory constants are determined by non-linear regression of reaction velocity as a function of inhibitor and enzyme concentration using Morrison's equation, as described by Kuzmic, Anal. Biochem. 286, 45-50 (2000). Modifications were made in the non-linear regression method to allow a common control reaction rate and effective enzyme concentration to be shared between all dose-response relationships on a given assay plate. Since the substrate concentration was chosen to be at or below the Km, the apparent Ki's from this analysis were reported as Ki's without correction for the influence of substrate.

SMILES strings stand for the structures. Where a name gives a salt, the structure may show the parent alone.

T2 sequence (P08254 100-272 limits assumed): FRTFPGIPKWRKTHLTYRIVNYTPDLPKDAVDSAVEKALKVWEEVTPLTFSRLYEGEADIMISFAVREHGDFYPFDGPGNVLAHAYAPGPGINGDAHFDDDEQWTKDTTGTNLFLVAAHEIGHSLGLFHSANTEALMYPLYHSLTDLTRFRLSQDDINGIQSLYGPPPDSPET

With `COc1cccc(CNC(=O)c2nc3ccc(F)c(OC[C@H]4CO[C@H](CO)CO4)c3c(=O)[nH]2)c1` (relative stereo) [Example 3, 6-Fluoro-5-{[(trans-2,5)-5-(hydroxymethyl)-1,4-dioxan-2-yl]methoxy}-N-(3-methoxybenzyl)-4-oxo-3,4-dihydroquinazoline-2-carboxamide], the Ki on Human recombinant MMP-13 is 16.4 nM; in assay [1], 8580 nM.

As for `COc1cccc(CNC(=O)c2nc3scc(COC[C@@H]4CO[C@@H](C(=O)O)CO4)c3c(=O)[nH]2)c1` (relative stereo) [Example 8, Trans-5-(((2-((3-Methoxybenzyl)carbamoyl)-4-oxo-3,4-dihydrothieno[2,3-d]pyrimidin-5-yl)methoxy)methyl)-1,4-dioxane-2-carboxylic acid], the results for the Ki (at Human recombinant MMP-13; in assay [1]) were 4.16 nM and 1310 nM, respectively. Consider `COc1cc(CNC(=O)c2nc3scc(COC[C@@H]4CO[C@@H](CO)CO4)c3c(=O)[nH]2)ccc1F` (relative stereo) [Example 11, N-(4-Fluoro-3-methoxybenzyl)-5-(((trans-5-(hydroxymethyl)-1,4-dioxan-2-yl)methoxy)methyl)-4-oxo-3,4-dihydrothieno[2,3-d]pyrimidine-2-carboxamide], for which the values for the Ki (at Human recombinant MMP-13; in assay [1]) were 11 nM and 663 nM, respectively. On the same counts, the results for `COc1cc(CNC(=O)c2nc3scc(COC[C@@H]4CO[C@@H](C(=O)O)CO4)c3c(=O)[nH]2)ccc1F` (relative stereo) [Example 12, Trans-5-(((2-((4-Fluoro-3-methoxybenzyl)carbamoyl)-4-oxo-3,4-dihydrothieno[2,3-d]pyrimidin-5-yl)methoxy)methyl)-1,4-dioxane-2-carboxylic acid] are 1.62 nM and 668 nM. For `COc1cc(CNC(=O)c2nc3scc(COC[C@@H]4CO[C@@H](C(N)=O)CO4)c3c(=O)[nH]2)ccc1F` (relative stereo) [Example 15, N-(4-Fluoro-3-methoxybenzyl)-5-(((trans-5-carbamoyl-1,4-dioxan-2-yl)methoxy)methyl)-4-oxo-3,4-dihydrothieno[2,3-d]pyrimidine-2-carboxamide], in that order: 4.04 nM and 960 nM. On to `COc1cccc(CNC(=O)c2nc3ccc(F)c(OC[C@@H]4CO[C@@H](CN)CO4)c3c(=O)[nH]2)c1` (relative stereo) [Example 36, 5-{[(trans 2,5)-5-(aminomethyl)-1,4-dioxan-2-yl]methoxy}-6-fluoro-N-(3-methoxybenzyl)-4-oxo-3,4-dihydroquinazoline-2-carboxamide], for which, on Human recombinant MMP-13, the Ki stood at 19.9 nM. Same read-out and setting: the value for `COc1cccc(CNC(=O)c2nc3scc(COC[C@H]4CC[C@H](N)CC4)c3c(=O)[nH]2)c1` [Example 1, 5-({[trans-4-Aminocyclohexyl]methoxy}methyl)-N-(3-methoxybenzyl)-4-oxo-3,4-dihydrothieno[2,3-d]pyrimidine-2-carboxamide] was 13 nM. With `COc1cccc(CNC(=O)c2nc3scc(COC[C@H]4CC[C@H](CO)CC4)c3c(=O)[nH]2)c1` [Example 4, N-(3-methoxybenzyl)-5-(((trans-4-(hydroxymethyl)cyclohexyl)methoxy)methyl)-4-oxo-3,4-dihydrothieno[2,3-d]pyrimidine-2-carboxamide], the Ki turned out to be 0.471 nM at Human recombinant MMP-13 and 337 nM in assay [1]. `COc1cccc(CNC(=O)c2nc3scc(COC[C@H]4CC[C@H](C(=O)O)CC4)c3c(=O)[nH]2)c1` [Example 5, Trans-4-(((2-((3-Methoxybenzyl)carbamoyl)-4-oxo-3,4-dihydrothieno[2,3-d]pyrimidin-5-yl)methoxy)methyl)cyclohexanecarboxylic acid]: the Ki on Human recombinant MMP-13 amounted to 0.221 nM; in assay [1], 389 nM. With `COc1cccc(CNC(=O)c2nc3scc(COC[C@H]4CC[C@H](C#N)CC4)c3c(=O)[nH]2)c1` [Example 6, N-(3-Methoxybenzyl)-5-(((trans-4-cyanocyclohexyl)methoxy)methyl)-4-oxo-3,4-dihydrothieno[2,3-d]pyrimidine-2-carboxamide], the figures for the Ki (on Human recombinant MMP-13; in assay [1]) were 0.747 nM and 468 nM, respectively. Consider `COc1cc(CNC(=O)c2nc3scc(COC[C@H]4CC[C@H](C(=O)O)CC4)c3c(=O)[nH]2)ccc1F` [Example 10, Trans-4-(((2-((4-Fluoro-3-methoxybenzyl)carbamoyl)-4-oxo-3,4-dihydrothieno[2,3-d]pyrimidin-5-yl)methoxy)methyl)cyclohexanecarboxylic acid], for which the results for the Ki (at Human recombinant MMP-13; in assay [1]) were 0.143 nM and 163 nM, respectively. On the same counts, the results for `COc1cc(CNC(=O)c2nc3scc(COC[C@H]4CC[C@H](C(N)=O)CC4)c3c(=O)[nH]2)ccc1F` [Example 13, N-(4-Fluoro-3-methoxybenzyl)-5-(((trans-4-carbamoylcyclohexyl)methoxy)methyl)-4-oxo-3,4-dihydrothieno[2,3-d]pyrimidine-2-carboxamide] are 0.141 nM and 258 nM. Turning to `COc1cc(CNC(=O)c2nc3scc(COC[C@H]4CC[C@H](C#N)CC4)c3c(=O)[nH]2)ccc1F` [Example 14, N-(4-Fluoro-3-methoxybenzyl)-5-(((trans-4-cyanocyclohexyl)methoxy)methyl)-4-oxo-3,4-dihydrothieno[2,3-d]pyrimidine-2-carboxamide], the Ki on Human recombinant MMP-13 amounted to 0.479 nM; in assay [1], 350 nM. As for `COc1cccc(CNC(=O)c2nc3scc(COCCC4CCNCC4)c3c(=O)[nH]2)c1` [Example 26, N-(3-methoxybenzyl)-4-oxo-5-[(2-piperidin-4-ylethoxy)methyl]-3,4-dihydrothieno[2,3-d]pyrimidine-2-carboxamide hydrochloride], at Human recombinant MMP-13, the Ki stood at 9.28 nM.
